This is an account of results in patent publication US20110136877A1, “2-PHENYL PHENOXYACETIC ACIDS USEFUL FOR TREATING INFLAMMATORY DISORDERS” (LIGAND PHARMACEUTICALS INC., priority 2008, published 2011).

The target in one assay is T1, human CRTH2 (Homo sapiens, UniProt Q9Y5Y4).
T1 construct: expressed in transfected cells; membranes used
T1 sequence (Q9Y5Y4 1-395): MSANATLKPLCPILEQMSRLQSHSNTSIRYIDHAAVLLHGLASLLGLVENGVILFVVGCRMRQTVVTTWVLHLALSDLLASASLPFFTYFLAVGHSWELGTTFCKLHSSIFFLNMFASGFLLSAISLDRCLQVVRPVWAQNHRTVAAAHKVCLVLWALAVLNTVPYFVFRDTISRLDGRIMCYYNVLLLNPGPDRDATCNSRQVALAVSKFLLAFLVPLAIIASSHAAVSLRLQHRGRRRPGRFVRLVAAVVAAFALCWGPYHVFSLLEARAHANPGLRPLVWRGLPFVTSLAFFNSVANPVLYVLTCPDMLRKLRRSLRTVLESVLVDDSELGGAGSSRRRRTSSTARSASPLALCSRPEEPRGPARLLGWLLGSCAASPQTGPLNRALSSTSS
The assay is described as follows: [35S]GTPγS binding assay (SPA). The assay is classed as biochemical.
Conditions: not given
Here is the method:
[^35S]GTPγS Binding Assay
SPA [^35S]GTPγS binding was performed on membranes from CHO-K1 cells stably expressing human CRTH2. To a white, clear-bottomed 384-well plate, 4 μg membrane protein was incubated in the binding buffer (20 mM HEPES, pH 7.4, 10 mM MgCl2, 300 mM NaCl, 0.2% BSA) with 60 nM DHK-PGD2, 500 pM [^35S]GTPγS, 10 μM GDP, and 100 μg wheat germ agglutinin-coupled SPA beads (GE Healthcare) with and without increasing concentrations of compounds. The final assay volume was 40 μL and contained 1% DMSO. Samples were incubated for 2 h at ambient temperature. Plates were centrifuged 5 min at 1500 rpm. Plates were read after an additional 4 h using the Trilux 1450 Microbeta (PerkinElmer) with a 30 sec/well reading time.
(In general: GTPγS is a poorly hydrolysed GTP analogue; its binding reports G protein activation.)
Take `CN(Cc1cccc(-c2cc(C(F)(F)F)ccc2OCC(=O)O)c1)C(=O)Oc1ccccc1` [Compound 24, {[3′-{[methyl(phenoxycarbonyl)amino]methyl}-5-(trifluoromethyl)biphenyl-2-yl]oxy}acetic acid]: the IC50 – broadly, the point on the concentration scale where inhibition reaches its midpoint – was 100 to 1000 nM.

The assay is the same for the next values; noted with them: membranes from CHO-K1 cells stably expressing human CRTH2; 60 nM DHK-PGD2; read-out: CRTH2 GTPγS assay IC50.
As for `CCCCNC(=O)CN(Cc1cccc(-c2ccccc2OCC(=O)O)c1)C(=O)OCCCC` [Compound 6, {[3′-({(butoxy carbonyl)[2-(butylamino)-2-oxoethyl]amino}methyl)biphenyl-2-yl]oxy}acetic acid], the IC50 is under 100 nM.
Still for that read-out and setting: to `CCCCNC(=O)CN(Cc1cccc(-c2cc(F)ccc2OCC(=O)O)c1)C(=O)OCCCC` [Compound 7, {[3′-({(butoxy carbonyl)[2-(butylamino)-2-oxoethyl]amino}methyl)-5-fluorobiphenyl-2-yl]oxy}acetic acid] belongs under 100 nM.
In the case of `CCCCNC(=O)CN(Cc1cccc(-c2cc(C)ccc2OCC(=O)O)c1)C(=O)OCCCC` [Compound 8, {[3′-({(butoxy carbonyl)[2-(butylamino)-2-oxoethyl]amino}methyl)-5-methylbiphenyl-2-yl]oxy}acetic acid], the IC50 was under 100 nM.
Take `CCCCNC(=O)CN(Cc1cccc(-c2cc(C(F)(F)F)ccc2OCC(=O)O)c1)C(=O)OCCCC` [Compound 9, {[3′-({(butoxy carbonyl)[2-(butylamino)-2-oxoethyl]amino}methyl)-5-(trifluoromethyl)biphenyl-2-yl]oxy}acetic acid]: the IC50 was under 100 nM.
In the case of `CCCCNC(=O)CN(Cc1cccc(-c2cc(Cl)ccc2OCC(=O)O)c1)C(=O)OCCCC` [Compound 11, {[3′-({(butoxy carbonyl)[2-(butylamino)-2-oxoethyl]amino}methyl)-5-chlorobiphenyl-2-yl]oxy}acetic acid], the IC50 is under 100 nM.
`CCCCNC(=O)CN(Cc1cccc(-c2ccccc2OCC(=O)O)c1)C(=O)Cc1ccccc1` [Compound 13, {[3′-{[[2-(butylamino)-2-oxoethyl](phenylacetyl)amino]methyl}-biphenyl-2-yl]oxy}acetic acid]: the IC50 was under 100 nM.
For the compound `CCCCOC(=O)N(C)Cc1cccc(-c2cc(C(F)(F)F)ccc2OCC(=O)O)c1` [Compound 18, {[3′-{[(butoxycarbonyl)(methyl)amino]methyl}-5-(trifluoromethyl)biphenyl-2-yl]oxy}acetic acid], the IC50 was under 100 nM.
Regarding `CCCCOC(=O)N(CCCC)Cc1cccc(-c2cc(C(F)(F)F)ccc2OCC(=O)O)c1` [Compound 19, {[3′-{[(butoxycarbonyl)(butyl)amino]methyl}-5-(trifluoromethyl)biphenyl-2-yl]oxy}acetic acid], the 50% inhibitory concentration (IC50) was under 100 nM.
The same measure, in the same setting: with `CCCCOC(=O)N(CC(=O)NC)Cc1cccc(-c2cc(C(F)(F)F)ccc2OCC(=O)O)c1` [Compound 20, {[3′-({(butoxycarbonyl) [2-(methylamino)-2-oxoethyl]amino}methyl)-5-(trifluoromethyl)biphenyl-2-yl]oxy}acetic acid] the figure was under 100 nM.
`CNC(=O)CN(Cc1cccc(-c2cc(C(F)(F)F)ccc2OCC(=O)O)c1)C(C)=O` [Compound 21, {[3′-({(acetyl)[2-(methylamino)-2-oxoethyl]amino}methyl)-5-(trifluoromethyl)biphenyl-2-yl]oxy}acetic acid]: the IC50 fell in the range of 100 to 1000 nM.
Still for that read-out and setting: with `CC(=O)N(Cc1cccc(-c2cc(C(F)(F)F)ccc2OCC(=O)O)c1)c1ccccc1` [Compound 22, {[3′-{[acetyl(phenyl)amino]methyl}-5-(trifluoromethyl)biphenyl-2-yl]oxy}acetic acid] the figure was 100 to 1000 nM.
For the compound `CN(Cc1cccc(-c2cc(C(F)(F)F)ccc2OCC(=O)O)c1)C(=O)c1ccccc1` [Compound 23, {[3′-{[methyl(phenylcarbonyl)amino]methyl}-5-(trifluoromethyl)biphenyl-2-yl]oxy}acetic acid], the IC50 was in the range of 100 to 1000 nM.
Regarding `CCCCOC(=O)N(Cc1cccc(-c2cc(C(F)(F)F)ccc2OCC(=O)O)c1)c1ccccc1` [Compound 25, {[3′-{[(butoxycarbonyl)(phenyl)amino]methyl}-5-(trifluoromethyl)biphenyl-2-yl]oxy}acetic acid], the IC50 is 100 to 1000 nM.
For the compound `CCCCOC(=O)N(Cc1cccc(-c2cc(C(F)(F)F)ccc2OCC(=O)O)c1)Cc1nccs1` [Compound 27, {[3′-{[(butoxycarbonyl)(1,3-thiazol-2-ylmethyl)amino]methyl}-5-(trifluoromethyl)biphenyl-2-yl]oxy}acetic acid], the IC50 is under 100 nM.
Turning to `CN(Cc1cccc(-c2cc(C(F)(F)F)ccc2OCC(=O)O)c1)C(=O)Nc1ccccc1` [Compound 28, {[3′-{[(anilinocarbonyl)(methyl)amino]methyl}-5-(trifluoromethyl)biphenyl-2-yl]oxy}acetic acid], the IC50 fell in the range of 100 to 1000 nM.
Consider `CN(Cc1cccc(-c2cc(C(F)(F)F)ccc2OCC(=O)O)c1)C(=O)Nc1cccnc1` [Compound 29], for which the IC50 is 100 to 1000 nM.
The same measure, in the same setting: to `CCCCNC(=O)N(C)Cc1cccc(-c2cc(C(F)(F)F)ccc2OCC(=O)O)c1` [Compound 30, {[3′-{[(butylaminocarbonyl)(methyl)amino]methyl}-5-(trifluoromethyl)biphenyl-2-yl]oxy}acetic acid] belongs under 100 nM.
On the same count and under the same terms, to `CN(Cc1cccc(-c2cc(C(F)(F)F)ccc2OCC(=O)O)c1)C(=O)c1cccnc1` [Compound 32, {[3′-{[methyl(pyridine-3-ylcarbonyl)amino]methyl}-5-(trifluoromethyl)biphenyl-2-yl]oxy}acetic acid] belongs under 100 nM; to `CN(Cc1cccc(-c2cc(C(F)(F)F)ccc2OCC(=O)O)c1)S(=O)(=O)c1ccccc1` [Compound 33, {[3′-{[(benzensulfonyl)(methyl)amino]methyl}-5-(trifluoromethyl)biphenyl-2-yl]oxy}acetic acid], 100 to 1000 nM.
As for `CN(Cc1cccc(-c2cc(C(F)(F)F)ccc2OCC(=O)O)c1)S(=O)(=O)c1cccnc1` [Compound 34, {[3′-{[(pyridine-3-ylsulfonyl)(methyl)amino]methyl}-5-(trifluoromethyl)biphenyl-2-yl]oxy}acetic acid], the IC50 lay within 100 to 1000 nM.
Same read-out and setting: to `CCCCNC(=O)CN(CCc1ccc(-c2ccccc2OCC(=O)O)cc1)C(=O)OCCCC` [Compound 36, {[4′-({(butoxy carbonyl)[2-(butylamino)-2-oxoethyl]amino}ethyl)biphenyl-2-yl]oxy}acetic acid] belongs under 100 nM.
